In article PMC8047731 (ACS Omega, 2021):
Values belong to the molecule of their own block, whether it stands above or below them.

Experiments:
[1] = system: short duplex DNA substrate (EtBr-DS); assay: Ethidium bromide displacement assay; assay type: binding; details: compound at exonuclease IC50 of SNM1A, 10 min
HeLa cells = assay: Cisplatin potentiation assay; assay type: cell-based; details: 25 μM compound + […] μM cisplatin (LD10), 72 h, alamarBlue
[2] = target: T1, SNM1A exonuclease activity (Homo sapiens, UniProt Q6PJP8); assay: Gel-based IC50 determination, SNM1A exonuclease activity; details: 0.2 nM SNM1A, 110 nM 5P-1F, 60 min, 37 °C, triplicate
T1 sequence (Q6PJP8 698-1040): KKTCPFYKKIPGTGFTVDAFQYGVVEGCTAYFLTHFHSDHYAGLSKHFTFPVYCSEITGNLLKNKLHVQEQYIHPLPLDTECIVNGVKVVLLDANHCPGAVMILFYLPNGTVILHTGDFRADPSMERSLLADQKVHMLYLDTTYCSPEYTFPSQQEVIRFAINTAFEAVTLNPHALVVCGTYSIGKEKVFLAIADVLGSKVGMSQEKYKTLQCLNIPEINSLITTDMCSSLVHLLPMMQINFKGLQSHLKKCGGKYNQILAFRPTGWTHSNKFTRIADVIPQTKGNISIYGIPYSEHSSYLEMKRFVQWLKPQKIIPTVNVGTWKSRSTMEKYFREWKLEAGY

nuclease = details: cited from earlier work
SNM1A = target: T2, SNM1A (Homo sapiens, UniProt Q6PJP8); assay: Gel-based secondary screen validation; assay type: biochemical; details: 25 and 6.25 μM compound
T2 sequence (Q6PJP8 698-1040): T1 sequence (Q6PJP8 698-1040)

Compound: O=C(O[C@@H]1Cc2c(O)cc(O)cc2O[C@@H]1c1cc(O)c(=O)c2c(O)c(O)cc([C@H]3Oc4cc(O)cc(O)c4C[C@H]3OC(=O)c3cc(O)c(O)c(O)c3)c2c1)c1cc(O)c(O)c(O)c1 [Compound 40, […]]
- Displacement of ethidium bromide from DNA [1]: apparent nonspecific interactions with DNA

Compound: Nc1c(S(=O)(=O)O)cc(Nc2ccc(Nc3nc(Cl)nc(Nc4cccc(S(=O)(=O)O)c4)n3)c(S(=O)(=O)O)c2)c2c1C(=O)c1ccccc1C2=O [Compound 30, REACTIVE BLUE 2]
- Cell survival with sublethal cisplatin (potentiation) (HeLa cells): reduced cell survival
- Displacement of ethidium bromide from DNA [1]: apparent nonspecific interactions with DNA

Compound: COC(=O)c1cc(O)c(=O)c2c(O)c(O)ccc2c1 [Compound 61, METHYL 7-DESHYDROXYPYROGALLIN-4-CARBOXYLATE]
- Displacement of ethidium bromide from DNA [1]: do not appear to significantly displace ethidium bromide

- Exonuclease IC50 [2]: nanomolar range
Compound: O=C(O)C1=CC(=C(c2ccc(O)c(C(=O)O)c2)c2ccc(O)c(C(=O)O)c2)C=CC1=O [Compound 20, AURINTRICARBOXYLIC ACID]
- Nuclease inhibition (nuclease): nonspecific nuclease inhibitor
- Displacement of ethidium bromide from DNA [1]: apparent nonspecific interactions with DNA

- Assay interference in the gel-based screen (reason for exclusion) (SNM1A): internal fluorescence
Compound: C[C@@H]1CC[C@@]23CCC4(C)[C@@](C=CC5[C@@]6(C)CCC(=O)C(C)(C)C6CC[C@]54C)(OC2=O)C3[C@H]1C (some centres unmarked) [Compound 44, 3-OXOURSAN (28-13)OLIDE]

- Assay interference in the gel-based screen (reason for exclusion) (SNM1A): internal fluorescence
Compound: O=C1OC2(c3ccc(O)cc3Oc3cc(O)ccc32)c2ccccc21 [Compound 54, FLUORESCEIN]

Compound: O=c1cc(-c2ccc(O)c(-c3c(O)cc(O)c4c(=O)cc(-c5ccc(O)cc5)oc34)c2)oc2cc(O)cc(O)c12 [Compound 13, AMENTOFLAVONE]
- Cell survival with sublethal cisplatin (potentiation) (HeLa cells): reduced cell survival
- Displacement of ethidium bromide from DNA [1]: do not appear to significantly displace ethidium bromide
